Consider 15 compounds from patent US20240140991A1, “ANTIBIOTIC NATURAL PRODUCT ANALOGUES” (THE QUEEN'S UNIVERSITY OF BELFAST, priority 2021, published 2024).

The subject of this assay is Escherichia coli ATCC 25922. The assay is classed as cell-based. The conditions noted are these: ATCC 25922. The protocol:
Minimum inhibitory concentration (MIC) was determined by broth microdilution according to CLSI guidelines. Blood agar plates were inoculated with glycerol stocks of Escherichia coli ATCC 25922, E. coli ATCC 25922 MCR-1, E. coli MCR-1 (clinical isolate from Utrecht Medical Center, NL), E. coli EQAS MCR-2 (clinical isolate from Wageningen University and Research, NL), Kiebsielia pneumoniae ATCC 11228, K. pneumoniae ATCC 13883, K. pneumonia 2048 (clinical isolate from Vrije Universiteit Amsterdam Medical Center, NL), K. pneumonia JS-123 (clinical isolate from Utrecht Medical Center, NL), Acinetobacter baumannii ATCC 17961, A. baumannil ATCC 17978, A. baumannii 2018-006 (clinical isolate from Rijksinstituut voor Volksgezondheid en Milieu, NL), A. baumannii MDR (clinical isolate from Vrije Universiteit Amsterdam Medical Center, NL), Pseudomonas aeruginosa ATCC 27853, P. aeruginosa PAO1, P. aeruginosa NRZ-03961 (Reference strain from Das Nationale Referenzzentrum für gramnegative Krankenhauserreger, DE), P. aeruginosa M-120 (clinical isolate from Leiden University Medical Center, NL) and Staphylococcus aureus USA300 (clinical isolate from Texas Children's Hospitalm, USA). E. coli 25922 MCR1 was grown on LB agar supplemented with kanamycin. The inoculated agar plates were then incubated for 16 hours at 37° C. Individually grown colonies were subsequently used to inoculate 3 mL aliquots of TSB that were then incubated at 37° C. with shaking at 220 rpm. In parallel, the compounds to be assessed were serially diluted with Mueller-Hinton broth (MHB) in polypropylene 96-well plates (50 μL in each well). Once the OD600 of the bacterial suspensions reached 0.5, the bacteria were diluted with MHB (final concentration 2×10^5 CFU mL^−1) and added to the microplates containing the test compounds (50 μL to each well, final volume: 100 μL). The well-plates were sealed with an adhesive membrane and after 16 hours of incubation at 37° C. with shaking at 220 rpm the wells were visually inspected for bacterial growth. MIC values were defined as the lowest concentration of the compound that prevented visible growth of bacteria.

Values after ≈ are worked out from the molar mass of the structure shown. Positions of bridges follow the written chain, without caps; N, C: chain ends. Non-standard residues stand in square brackets, D forms with d. Residues, ends and D or L forms follow the SMILES beside them. ξ: configuration not given here. *: point of attachment. Octanoyl(7-Me) = CC(C)CCCCCC(=O)*; Hexanoyl(4ξ-Me) = CCC(C)CCC(=O)*; dOrn = NCCC[C@@H](N)C(=O)O; Octanoyl = CCCCCCCC(=O)*; Orn = NCCC[C@H](N)C(=O)O; Dap = NC[C@H](N)C(=O)O; Alloc = C=CCOC(=O)*; OAll = C=CCO*

With `CC[C@H](C)[C@H](NC(=O)[C@@H](NC(=O)[C@H](Cc1c[nH]c2ccccc12)NC(=O)[C@@H](CCCN)NC(=O)CNC(=O)[C@H](C)NC(=O)[C@@H](CCCN)NC(=O)[C@@H](Cc1c[nH]c2ccccc12)NC(=O)[C@@H](Cc1ccc(O)cc1)NC(=O)[C@@H](CO)NC(=O)CCCCCC(C)C)[C@@H](C)O)C(=O)N[C@@H](CC(N)=O)C(=O)NCC(=O)NCC(N)=O` [Ala5 (Orn→Ala), FA-sywoAGoWTINGG-CONH2] ({Octanoyl(7-Me)}-[dS][dY][dW][dOrn]AG[dOrn]WTINGG-NH2), the “Minimum inhibitory concentration (MIC)” value stood at 32 µg/mL (≈ 20.3 µM).
Regarding `CC[C@H](C)[C@H](NC(=O)[C@H](CO)NC(=O)[C@H](Cc1c[nH]c2ccccc12)NC(=O)[C@@H](CCCN)NC(=O)CNC(=O)[C@H](CCCN)NC(=O)[C@@H](CCCN)NC(=O)[C@@H](Cc1c[nH]c2ccccc12)NC(=O)[C@@H](Cc1ccc(O)cc1)NC(=O)[C@@H](CO)NC(=O)CCCCCC(C)C)C(=O)N[C@@H](CC(N)=O)C(=O)NCC(N)=O` [ΔG13-Ser9-isoC9] ({Octanoyl(7-Me)}-[dS][dY][dW][dOrn][Orn]G[dOrn]WSING-NH2), the “Minimum inhibitory concentration (MIC)” value was found to be 4 µg/mL (≈ 2.58 µM).
Consider `CCC(C)CCC(=O)N[C@H](CO)C(=O)N[C@H](Cc1ccc(O)cc1)C(=O)N[C@H](Cc1c[nH]c2ccccc12)C(=O)N[C@H](CCCN)C(=O)N[C@@H](CCCN)C(=O)NCC(=O)N[C@H](CCCN)C(=O)N[C@@H](Cc1c[nH]c2ccccc12)C(=O)N[C@@H]1C(=O)N[C@@H]([C@@H](C)CC)C(=O)NCC(=O)N[C@H](CO)C(=O)N[C@@H](C)C(=O)O[C@@H]1C` (stereo partly drawn) [Compound R6] ({Hexanoyl(4ξ-Me)}-[dS][dY][dW][dOrn][Orn]G[dOrn]WTIG[dS]A; ester 9-C; N-terminus assumed), for which the “Minimum inhibitory concentration (MIC)” value is 1 µg/mL (≈ 0.639 µM).
`CC[C@H](C)[C@H](NC(=O)[C@@H](NC(=O)[C@H](Cc1c[nH]c2ccccc12)NC(=O)[C@@H](CCCN)NC(=O)CNC(=O)[C@H](CCCN)NC(=O)[C@@H](CCCN)NC(=O)[C@@H](Cc1c[nH]c2ccccc12)NC(=O)[C@@H](Cc1ccc(O)cc1)NC(=O)[C@@H](CO)NC(=O)CCCCCC(C)C)[C@@H](C)O)C(=O)N[C@@H](CC(N)=O)C(=O)NCC(=O)N[C@@H](C)C(N)=O` [Ala13 (Gly→Ala), FA-sywoOGoWTINGA-CONH2] ({Octanoyl(7-Me)}-[dS][dY][dW][dOrn][Orn]G[dOrn]WTINGA-NH2): the “Minimum inhibitory concentration (MIC)” value was 4 µg/mL (≈ 2.45 µM).
In the case of `C=CCOC(=O)CNC(=O)CNC(=O)[C@H](CC(N)=O)NC(=O)[C@@H](NC(=O)[C@H](CNC(=O)OCC=C)NC(=O)[C@H](Cc1c[nH]c2ccccc12)NC(=O)[C@@H](CCCN)NC(=O)CNC(=O)[C@H](CCCN)NC(=O)[C@@H](CCCN)NC(=O)[C@@H](Cc1c[nH]c2ccccc12)NC(=O)[C@@H](Cc1ccc(O)cc1)NC(=O)[C@@H](CO)NC(=O)CCCCCC(C)C)[C@@H](C)CC` [Dap(Alloc)9-COOAll] ({Octanoyl(7-Me)}-[dS][dY][dW][dOrn][Orn]G[dOrn]W[Dap](Alloc)INGG-OAll) it was 2 µg/mL (≈ 1.15 µM); in that of `CC[C@H](C)[C@H](NC(=O)[C@H](CO)NC(=O)[C@H](Cc1c[nH]c2ccccc12)NC(=O)[C@@H](CCCN)NC(=O)CNC(=O)[C@H](CCCN)NC(=O)[C@@H](CCCN)NC(=O)[C@@H](Cc1c[nH]c2ccccc12)NC(=O)[C@@H](Cc1ccc(O)cc1)NC(=O)[C@@H](CO)NC(=O)CCCCCC(C)C)C(=O)N[C@@H](CC(N)=O)C(=O)NCC(=O)NCC(N)=O` [Ser9-CONH2] ({Octanoyl(7-Me)}-[dS][dY][dW][dOrn][Orn]G[dOrn]WSINGG-NH2), 2 µg/mL (≈ 1.24 µM); in that of `CCC(C)CCC(=O)N[C@H](CO)C(=O)N[C@H](Cc1ccc(O)cc1)C(=O)N[C@H](Cc1c[nH]c2ccccc12)C(=O)N[C@H](CCCN)C(=O)N[C@@H](CCCN)C(=O)NCC(=O)N[C@H](CCCN)C(=O)N[C@@H](Cc1c[nH]c2ccccc12)C(=O)N[C@@H]1C(=O)N[C@@H]([C@@H](C)CC)C(=O)NCC(=O)N[C@@H](CO)C(=O)N[C@H](C)C(=O)O[C@@H]1C` (stereo partly drawn) [Compound R7] ({Hexanoyl(4ξ-Me)}-[dS][dY][dW][dOrn][Orn]G[dOrn]WTIGS[dA]; ester 9-C; N-terminus assumed), 1 µg/mL (≈ 0.639 µM).
As to `CC[C@H](C)[C@H](NC(=O)[C@H](Cc1ccccc1)NC(=O)[C@H](Cc1c[nH]c2ccccc12)NC(=O)[C@@H](CCCN)NC(=O)CNC(=O)[C@H](CCCN)NC(=O)[C@@H](CCCN)NC(=O)[C@@H](Cc1c[nH]c2ccccc12)NC(=O)[C@@H](Cc1ccc(O)cc1)NC(=O)[C@@H](CO)NC(=O)CCCCCC(C)C)C(=O)N[C@@H](CC(N)=O)C(=O)NCC(=O)NCC(N)=O` [Phe9-CONH2] ({Octanoyl(7-Me)}-[dS][dY][dW][dOrn][Orn]G[dOrn]WFINGG-NH2), the “Minimum inhibitory concentration (MIC)” value turned out to be 2 µg/mL (≈ 1.2 µM).
Next, `CC[C@H](C)[C@H](NC(=O)[C@@H](NC(=O)[C@H](Cc1c[nH]c2ccccc12)NC(=O)[C@@H](CCCN)NC(=O)CNC(=O)[C@H](CCCN)NC(=O)[C@@H](CCCN)NC(=O)[C@@H](Cc1c[nH]c2ccccc12)NC(=O)[C@@H](Cc1ccc(O)cc1)NC(=O)[C@@H](CO)NC(=O)CCCCCC(C)C)[C@@H](C)O)C(=O)N[C@@H](CC(N)=O)C(=O)N[C@@H](C)C(=O)NCC(N)=O` [Ala12 (Gly→Ala), FA-sywoOGoWTINAG-CONH2] ({Octanoyl(7-Me)}-[dS][dY][dW][dOrn][Orn]G[dOrn]WTINAG-NH2): 4 µg/mL (≈ 2.45 µM); `CC[C@H](C)[C@H](NC(=O)[C@@H](NC(=O)[C@H](Cc1c[nH]c2ccccc12)NC(=O)[C@@H](CCCN)NC(=O)CNC(=O)[C@H](CCCN)NC(=O)[C@@H](CCCN)NC(=O)[C@@H](Cc1c[nH]c2ccccc12)NC(=O)[C@@H](Cc1ccc(O)cc1)NC(=O)[C@@H](CO)NC(=O)CCCCCC(C)C)[C@@H](C)O)C(=O)N[C@@H](C)C(=O)NCC(=O)NCC(N)=O` [Ala11 (Asn→Ala), FA-sywoOGoWTIAGG-CONH2] ({Octanoyl(7-Me)}-[dS][dY][dW][dOrn][Orn]G[dOrn]WTIAGG-NH2): 16 µg/mL (≈ 10.1 µM).
On to `CC[C@H](C)[C@H](NC(=O)[C@@H](NC(=O)[C@H](Cc1c[nH]c2ccccc12)NC(=O)[C@@H](CCCN)NC(=O)CNC(=O)[C@H](CCCN)NC(=O)[C@@H](CCCN)NC(=O)[C@@H](Cc1c[nH]c2ccccc12)NC(=O)[C@@H](Cc1ccc(O)cc1)NC(=O)[C@@H](CO)NC(=O)CCCCCC(C)C)[C@@H](C)O)C(=O)N[C@@H](CC(N)=O)C(N)=O` [ΔG12-G13, FA-sywoOGoWTIN-CONH2] ({Octanoyl(7-Me)}-[dS][dY][dW][dOrn][Orn]G[dOrn]WTIN-NH2), for which the “Minimum inhibitory concentration (MIC)” value was found to be 4 µg/mL (≈ 2.65 µM).
Take `CC[C@H](C)[C@H](NC(=O)[C@H](CO)NC(=O)[C@H](Cc1c[nH]c2ccccc12)NC(=O)[C@@H](CCCN)NC(=O)CNC(=O)[C@H](CCCN)NC(=O)[C@@H](CCCN)NC(=O)[C@@H](Cc1c[nH]c2ccccc12)NC(=O)[C@@H](Cc1ccc(O)cc1)NC(=O)[C@@H](CO)NC(=O)CCCCCC(C)C)C(=O)N[C@@H](CC(N)=O)C(N)=O` [ΔG12-G13-Ser9-isoC9] ({Octanoyl(7-Me)}-[dS][dY][dW][dOrn][Orn]G[dOrn]WSIN-NH2): the “Minimum inhibitory concentration (MIC)” value was found to be 4 µg/mL (≈ 2.68 µM).
On to `C=CCOC(=O)NC[C@H](NC(=O)[C@H](Cc1c[nH]c2ccccc12)NC(=O)[C@@H](CCCN)NC(=O)CNC(=O)[C@H](CCCN)NC(=O)[C@@H](CCCN)NC(=O)[C@@H](Cc1c[nH]c2ccccc12)NC(=O)[C@@H](Cc1ccc(O)cc1)NC(=O)[C@@H](CO)NC(=O)CCCCCCC)C(=O)N[C@H](C(=O)N[C@@H](CC(N)=O)C(=O)NCC(N)=O)[C@@H](C)CC` [ΔG13-Dap(Alloc)9-C8] (Octanoyl-[dS][dY][dW][dOrn][Orn]G[dOrn]W[Dap](Alloc)ING-NH2), for which the “Minimum inhibitory concentration (MIC)” value lay within 2 to 4 µg/mL.
In the case of `CC[C@H](C)[C@H](NC(=O)[C@H](CC(N)=O)NC(=O)[C@H](Cc1c[nH]c2ccccc12)NC(=O)[C@@H](CCCN)NC(=O)CNC(=O)[C@H](CCCN)NC(=O)[C@@H](CCCN)NC(=O)[C@@H](Cc1c[nH]c2ccccc12)NC(=O)[C@@H](Cc1ccc(O)cc1)NC(=O)[C@@H](CO)NC(=O)CCCCCC(C)C)C(=O)N[C@@H](CC(N)=O)C(=O)NCC(=O)NCC(N)=O` [Asn9-CONH2] ({Octanoyl(7-Me)}-[dS][dY][dW][dOrn][Orn]G[dOrn]WNINGG-NH2) it was 4 µg/mL (≈ 2.45 µM).
On to `CC[C@H](C)[C@H](NC(=O)[C@@H](NC(=O)[C@H](C)NC(=O)[C@@H](CCCN)NC(=O)CNC(=O)[C@H](CCCN)NC(=O)[C@@H](CCCN)NC(=O)[C@@H](Cc1c[nH]c2ccccc12)NC(=O)[C@@H](Cc1ccc(O)cc1)NC(=O)[C@@H](CO)NC(=O)CCCCCC(C)C)[C@@H](C)O)C(=O)N[C@@H](CC(N)=O)C(=O)NCC(=O)NCC(N)=O` [Ala8 (Trp→Ala), FA-sywoOGoATINGG-CONH2] ({Octanoyl(7-Me)}-[dS][dY][dW][dOrn][Orn]G[dOrn]ATINGG-NH2), for which the “Minimum inhibitory concentration (MIC)” value was over 64 µg/mL.
